“And” between values parts separate entries of the source, which are not always exact repeats. Equal entries are not always repeated. “Also recorded” adds a separate entry of the source. Where two headings read alike, the source gives them in different places.
Key:
[1] = Rapamycin in lung and blood after oropharyngeal aspiration (OPA) and oral gavage, LC-MS/MS; format: in vivo, C57BL/6 mice
Method: Dosing: Each animal was weighed prior to dosing to determine the amount of dose to be administered. A single gavage dose was administered using a 100-μL glass syringe (Hamilton, Reno, Nev.) fitted with a ball-tipped 20-G stainless steel gavage dosing needle (Popper & Sons Inc., New Hyde Park, N.Y.). The dose administered to each animal was determined from the weight of the full syringe minus that of the empty syringe. The dosing time was recorded. Dosing of animals was spaced apart to allow blood collection at the appropriate times. The dose formulations administered to each group are shown below.
Each mouse was anesthetized with isoflurane and restrained with the mouth open. The tongue was held to one side of the mouth with forceps, and the dose was slowly injected into the distal part of the oral cavity. The nostrils were covered with a finger for two breaths to ensure aspiration (Rao et al., 2003).
Collection of Blood and Lung Samples: At study termination (1 or 72 h after dosing), mice were anesthetized by exposure to CO2, and blood was collected by cardiac puncture with dipotassium EDTA as anticoagulant. Lung tissue was excised and divided into the right and left lung. The left lung was used for analysis, and the right lung flash frozen in liquid nitrogen and stored at −70° C. for further analysis.
Triamcinolone was used as internal standard.
Lung homogenate was prepared by homogenization of weighed lung samples with 2.8-mm ball bearings in a homogenizer with tissue+deionized water (1:3 w/v) in a SPEX SamplePrep 2010 Geno/Grinder.
The concentrations of standards were arranged so that each standard came from an alternate stock standard. A six-point calibration curve, each made in triplicate, was employed for analyte quantitation. A simple linear regression model with or without weighting was employed for curve fitting. The concentration range determined was from 1-2000 ng/mL in blood and 2-2000 ng/mL in lung homogenate.
Thirty (30) μL of matrix, 30 μL of spiking solution (methanol for blanks and samples), 10 μL Internal standard solution (in MeOH) and 90 μL of MeOH were pipetted into microcentrifuge tubes, vortexed briefly, then centrifuged for 6 min at 10,000 RPM at −4° C. Aliquots (90 μL) of supernatant were transferred to LC vial inserts, and then analyzed by LC-MS/MS (Table 2).

[2] = system: phosphorylated S6 (mTOR pathway); test: S6 phosphorylation by western blot in AML cells; format: cell-based, human; settings: 20 nM, 24 hours
[3] = 24 hours after 14th dose, cited from earlier work
[4] = 28-day repeat daily dose inhalation toxicity and toxicokinetics, dog study 7300227; settings: beagle, in vivo
Source text: For the dog study, a positive flow delivery system (PFDS) consisting of a central plenum and delivery arms was utilized. The central plenum was of modular design with separate ports into which were attached 5 delivery arms fitted with oronasal exposure masks fitted with inlet and outlet tubes. The mask was fitted over the dog's muzzle in such a way that the nose was inside the mask, allowing entrance and exit of air. During exposure, animals wore a harness and were placed on a restraint platform. The harness was attached to two side poles on the platform in order to restrict lateral movement of the dog. The front part of the harness was loosely attached to a hook on the front of the platform to prevent the animal from turning around. […] For each dosing group, one set of animals (N=6) was dosed for 60 minutes each day for 28 consecutive days.

in vivo = settings: Sprague-Dawley, rat
Method: (§1) A second repeat exposure study was conducted to evaluate the repeat dose toxicity and toxicokinetics of the dry powder formulation administered to SD rats and Beagle dogs for 28 days.
(§2) For the rat study, standard cylindrical flow-through nose-only inhalation chambers were utilized, as above. […] For each of the three dosing groups, one set of animals (N=36) were dosed for 300 minutes each day for 28 consecutive days. On Study Days 1 and 28, blood samples were taken from animals in subgroups of 6 at the following time points: (1) Predose, (2) Midway dosing, (3) Immediate post dosing, (4) 2 hours post dosing, (5) 4 hours post dosing, (6) 12 hours post dosing and (7) 24 hours post dosing.

[5] = Observation for adverse effects / clinical signs after dosing; format: in vivo, C57BL/6 mice; settings: 1 mg/kg, up to 72 h following dosing
Method: The oral dose was formulated using pharmaceutical oral liquid formulation Rapamune Oral® (Pfizer). […] An additional group of 6 mice received vehicle only (10% ethanol in water). […] At the 72-h necropsy, blood was obtained by cardiac puncture and the lungs removed.
The time of dosing was recorded as 0. Animals in groups 2 and 3 were euthanized at 1 h after dosing.

[6] = lymphangioleiomyomatosis patients, McCormack et al. (2011); cited from earlier work
[7] = system: Phospho-S6 Ribosomal Protein (Ser240/244); test: S6 phosphorylation in rat lung homogenate, western blot (S6-P/total S6); format: in vivo, Sprague-Dawley rats; settings: inhalation, target dose 0.354 mg/kg
Method: Lungs samples from each animal were collected and snap frozen. The individual frozen lung samples were homogenized (Qiagen TissueLyser LT according to manufacturer's protocols) in 1×RIPA Buffer with protease and phosphatase inhibitors. […] The Western blot images were analyzed by NIH image) v1.48 to generate the respective antibody reactivity/intensity and create the ratio of S6 phosphorylation (S6-P) to total S6 intensities for each lung sample. The 56-P/total S6 ratios (y-axis) for sample organized by timepoint group (X-axis) were plotted on a one grouping variable scatter plot vertical graph (GraphPad, version 4.0), all samples in groups are represented by filled in black dots (●) on the graph and average is shown by the horizontal line between the dots within each respective group (FIG. 8B).

[8] = system: TSC2 deficient TRI-AML101 cell line; test: Cell viability, CellTiter-Glo luminescence assay, 10 point dose response; settings: 72 hours after compound addition, relative to DMSO control
Method: Two thousand cells in 50 uL of growth media (DMEM, 10% FBS, and 1% Penicillin/Streptomycin) were plated per well in a 96 well plate. […] 72 hours after compound addition, relative cell viability was determined by CellTiter-Glo® luminescence assay (Promega) and expressed as a percentage relative to vehicle (DMSO) treated control cells.

[9] = human, Rapamune NDA 21-110 and 21-083; cited from earlier work
[10] = Particle size distribution by laser diffraction; format: physicochemical
Method: For jet milling, a lab scale MCOne unit from Jetpharma was used with the following operating conditions: venturi pressure 2-4 bar, milling pressure 3-5 bar, feed rate 90 g/h. For wet polishing, feed suspensions were prepared using purified water. A microfluidics high pressure homogenizer was used for the size reduction step and the resulting suspension was spray-dried. Details of the wet polishing process are set forth below.
The high pressure homogenizer used for the size reduction step of the wet polishing process was a pilot-scale Microfluidics High Pressure Homogenizer equipped with an auxiliary processing module (200 micron) and a 100 micron interaction chamber was used. The unit was operated at ˜455 bar (˜30 bar in the intensifier module hydraulic pressure). After microfluidization the fluid was removed by spray drying to generate a dry powder. A laboratory scale spray dryer, SD45 (BÜCHI, model B-290 Advanced) was equipped with a two fluid nozzle (cap and diameter were 1.4 and 0.7 mm, respectively). Two cyclones in series were used (being the first the standard Buchi cyclone and the second the high-performance Buchi cyclone) to collect the dried product. The spray drying unit was operated with nitrogen and in single pass mode, i.e. without recirculation of the drying nitrogen. The aspirator, blowing nitrogen, was set at 100% of its capacity (flow rate at maximum capacity is approximately 40 kg/h). The flow rate of the atomization nitrogen was adjusted to a value in the rotameter of 40±5 mm. Before feeding the product suspension, the spray dryer was stabilized with purified water, during which the flow rate was adjusted to 6 ml/min (20% in the peristaltic pump). The inlet temperature was adjusted to achieve the target outlet temperature (45° C.). After stabilization of the temperatures, the feed of the spray dryer was commuted from purified water to the product suspension (keeping the same flow rate used during stabilization) and the inlet temperature once again adjusted in order to achieve the target outlet temperature. At the end of the stock suspension, the feed was once more commuted to purified water in order to rinse the feed line and perform a controlled shut down. The dry product in the collection flasks under both cyclones was weighed and the yield calculated as the mass percentage of the dry product in relation to the total solids in the suspension fed to the high pressure homogenizer.
Particle size distribution was analyzed by laser diffraction. Solid state characterization (for polymorphic form and purity) was performed by high pressure liquid chromatography (HPLC), X-ray powder diffraction (XRPD), and differential scanning calorimetry (mDSC). Water content was determined by the Karl Fischer method.

[11] = system: phosphorylated S6 protein (biomarker for mTOR activity); test: S6 phosphorylation in mouse lung following oral and OPA administration; format: in vivo, C57bl/6 mice
Source text: To validate this approach, we used the presence of phosphorylated S6 protein in murine lung tissue as a biomarker for mTOR activity. In the mouse strain used (C57b1/6), the mouse airway and alveolar epithelial cells have constitutively active (phosphorylated, “p”) S6 protein. The S6 protein is typically phosphorylated by S6K which is downstream of mTORC1 and is activated, for example downstream of growth factors such as epidermal growth factor (EGF), AKT, ERK, and RSK. mTORC1 promotes cell growth and proliferation by stimulating anabolic processes such as biosynthesis of lipids, proteins, and organelles, and suppressing catabolic processes such as autophagy.

[12] = 28-day repeat daily dose inhalation toxicity and toxicokinetics, rat study 7300225; settings: for Max blood levels: rat, average of D28
Method: as §1, §2

[13] = Extrapolation of rat and dog inhalation data to human dosing; settings: extrapolated
[14] = IV 10 mg/kg single dose, 24 hours; cited from earlier work
[15] = 2012 meta-analysis of published trials; cited from earlier work
[16] = emitted dose 87 ug, repeat inhaled daily dose 35 ug
[17] = emitted dose 175 ug, repeat inhaled daily dose 70 ug

CO[C@H]1C[C@@H]2CC[C@@H](C)[C@@](O)(O2)C(=O)C(=O)N2CCCC[C@H]2C(=O)O[C@H]([C@H](C)C[C@@H]2CC[C@@H](O)[C@H](OC)C2)CC(=O)[C@H](C)/C=C(\C)[C@@H](O)[C@@H](OC)C(=O)[C@H](C)C[C@H](C)/C=C/C=C/C=C/1C [Rapamycin]
Rapamycin in Blood ([1]; OPA 1 mg/kg, 72 h): below the limit of quantitation; also recorded: undetectable | Blood concentration ([1]; OPA 1 mg/kg, 72 h post-dose, individual animal): <ELOQ | Lung concentration ([1]; gavage (Rapamune Oral) 1 mg/kg, 1 h post-dose, individual animal, 1 mg/kg): <LOQ | rapamycin in lung or blood ([1]; oral (gavage) 1 mg/kg, 72 hrs): undetectable | S6 phosphorylation [2]: potently inhibits S6 phosphorylation | Rapamycin in Blood ([3]; IV 0.04 mg/kg/day): 9.4 ng/mL | Rapamycin in Lung ([3]; IV 0.04 mg/kg/day): 219 ng/g | Rapamycin in Blood ([3]; IV 0.08 mg/kg/day): 15.0 ng/mL | Rapamycin in Lung ([3]; IV 0.08 mg/kg/day): 457 ng/g | Rapamycin in Blood ([3]; IV 0.40 mg/kg/day): 19.6 ng/mL | Rapamycin in Lung ([3]; IV 0.40 mg/kg/day): 868 ng/g | Rapamycin in Blood ([3]; oral 0.4 mg/kg/day): 0.8 ng/mL | Rapamycin in Lung ([3]; oral 0.4 mg/kg/day): 42 ng/g | Rapamycin in Blood ([3]; oral 0.8 mg/kg/day): 2.1 ng/mL | Rapamycin in Lung ([3]; oral 0.8 mg/kg/day): 59 ng/g | NOAEL at 28 days [4]: 0.0134 mg/kg/day | NOAEL at 28 days (in vivo): 8.91 mg/kg/day | adverse effects / clinical signs [5]: No adverse effects were observed; also recorded: No significant clinical signs were observed | blood concentrations [6]: 5 to 15 ng/mL | S6 phosphorylation in lung tissue [7]: Inhibits S6 Phosphorylation | lowest concentration inhibiting viability [8]: 0.05 nM | clearance [9]: 0.0003 min⁻¹ | PSD Dv10 ([10]; jet milling): 1.5 μm and 1.51 μm | PSD Dv50 ([10]; jet milling): 2.7 μm and 2.74 μm | PSD Dv90 ([10]; jet milling): 4.9 μm and 4.91 μm | PSD Dv10 ([10]; wet polishing): 1.0 μm and 1.05 μm | PSD Dv50 ([10]; wet polishing): 2.4 μm and 2.42 μm | PSD Dv90 ([10]; wet polishing): 5.0 μm and 4.97 μm | level of phosphorylated S6 (pS6) in lung ([11]; 1 mg/kg OPA, 1 hr): reduced substantially | level of phosphorylated S6 (pS6) in lung ([11]; 1 mg/kg OPA, 72 hr): remained suppressed | level of phosphorylated S6 (pS6) in lung ([11]; 1 mg/kg oral gavage, 1 hr): reduced substantially | respiratory function ([12]; nose-only inhalation): no changes in respiratory function | Max blood levels ([12]; emitted dose 50 ug, repeat inhaled daily dose 5 ug): 7.6 ng/mL | Max blood levels ([12]; emitted dose 1425 ug, repeat inhaled daily dose 143 ug): 70.5 ng/mL | Max blood levels ([12]; emitted dose 2850 ug, repeat inhaled daily dose 285 ug): 77.8 ng/mL | Blood trough levels [13, 16]: 0.15 ng/mL | Lung 24 hr trough levels [13, 16]: 2 ng/g | Max blood levels [13, 16]: 0.65 ng/mL | Blood trough levels [13, 17]: 0.3 ng/mL | Lung 24 hr trough levels [13, 17]: 4 ng/g | Max blood levels [13, 17]: 1.3 ng/mL | Rapamycin in Blood [14]: 31 ng/mL | Rapamycin in Lung [14]: 721 ng/g

CO[C@H]1C[C@@H]2CC[C@@H](C)[C@@](O)(O2)C(=O)C(=O)N2CCCC[C@H]2C(=O)O[C@H]([C@H](C)C[C@@H]2CC[C@@H](OC(=O)C(C)(CO)CO)[C@H](OC)C2)CC(=O)[C@H](C)/C=C(\C)[C@@H](O)[C@@H](OC)C(=O)[C@H](C)C[C@H](C)/C=C/C=C/C=C/1C [temsirolimus]
cancer patients experiencing mild grade pulmonary toxicity [15]: 10%

CO[C@H]1C[C@@H]2CC[C@@H](C)[C@@](O)(O2)C(=O)C(=O)N2CCCC[C@H]2C(=O)O[C@H]([C@H](C)C[C@@H]2CC[C@@H](OCCO)[C@H](OC)C2)CC(=O)[C@H](C)/C=C(\C)[C@@H](O)[C@@H](OC)C(=O)[C@H](C)C[C@H](C)/C=C/C=C/C=C/1C [everolimus]
cancer patients experiencing mild grade pulmonary toxicity [15]: 10%

Reference: patent US12611398B2 (ORPHAI THERAPEUTICS INC., priority 2014, dated 2026)
